{"source": "patent US20230220021A1", "about": "“CYCLIC PEPTIDE INHIBITORS OF PSD-95 AND USES THEREOF” (University of Copenhagen, priority 2020, published 2023)", "biological_target": "T1, PSD-95-PDZ2 (Homo sapiens, UniProt P78352)", "T1 construct": "7xHis (N); made in house; host or cells: Escherichia coli B21 pLys (for the mutants, 'as previously described')", "T1 sequence (P78352 160-246 limits assumed)": "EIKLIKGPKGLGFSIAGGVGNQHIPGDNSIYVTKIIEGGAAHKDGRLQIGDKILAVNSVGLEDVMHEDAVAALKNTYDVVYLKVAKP", "assay": "Fluorescence polarization (FP) competition assay against cyclic nNOS TAMRA probe", "assay_type": "binding", "conditions": "for Ki: cyclic nNOS TAMRA probe, mean of triplicates, N.B. = not binding; for Relative Ki (Ki mut/Ki WT): FP inhibition constant normalized to WT value", "note": "Like-named read-outs stand apart in the source and are kept apart here. Where a SMILES comes first, the peptide text is derived from it. [ ]: non-standard residue; d: D form.", "protocol": "Fluorescence polarization (FP). FP assays were performed in a 384-well plate format. Fluorescence polarization was measured using a Safire 2 plate reader. The instrument Z-factor was optimized for each assay. The G-factor was calibrated to an initial milli polarization value of 20. The wavelength for the cyclic nNOS β-hairpin TAMRA probe was: ex: 530 nm and em: 580 nm. Every measurement was performed in NaPI 50 mM, 50 mM NaCl and 1% BSA at pH 7.2, 25° C. […] The curves were done in triplicates. Then, the polarization was fitted into a one-site binding model using Prism software 8.0 (GraphPad), from which the Kd can be measured. […] The mili polarization (mP) values were plotted as a function of peptide concentration and fitted to a sigmoidal dose-response curve using Prism software 8.0 (GraphPad). The Ki values were calculated according to Nikolovska-Coleska Z. et al.^40-41", "data": [{"compound": "CC[C@H](C)[C@@H]1NC(=O)[C@H]([C@@H](C)O)NC(=O)[C@H](CCCCN)NC(=O)[C@@H]2CCCN2C(=O)[C@H]([C@@H](C)O)NC(=O)CNC(=O)[C@H](CC(=O)O)NC(=O)CNC(=O)[C@H]([C@@H](C)O)NC(=O)[C@H](Cc2ccccc2)NC(=O)[C@H]([C@@H](C)O)NC(=O)[C@H]([C@@H](C)O)NC(=O)[C@H](CCC(=O)O)NC(=O)[C@H](CC(C)C)NC(=O)[C@H](Cc2c[nH]cn2)NC(=O)[C@H]([C@@H](C)O)NC(=O)[C@H](CCC(N)=O)NC(=O)CNC(=O)[C@H]2CCCN2C(=O)[C@H](CCC(N)=O)NC(=O)[C@H]([C@@H](C)O)NC(=O)[C@H](C(C)C)NC(=O)[C@@H](CCCNC(=N)N)NC1=O", "note": "[compound 126]", "values": [{"measurement": "Ki", "setting": "FP competition, read-out: Ki", "result": 9, "unit": "µM"}]}, {"compound": "CC[C@H](C)[C@@H]1NC(=O)[C@H]([C@@H](C)O)NC(=O)[C@H](CCCCN)NC(=O)[C@@H]2CCCN2C(=O)[C@H]([C@@H](C)O)NC(=O)CNC(=O)[C@@H](CC(=O)O)NC(=O)CNC(=O)[C@H]([C@@H](C)O)NC(=O)[C@H](Cc2ccccc2)NC(=O)[C@H]([C@@H](C)O)NC(=O)[C@H]([C@@H](C)O)NC(=O)[C@H](CCC(=O)O)NC(=O)[C@H](CC(C)C)NC(=O)[C@H](Cc2c[nH]cn2)NC(=O)[C@H]([C@@H](C)O)NC(=O)[C@H](CCC(N)=O)NC(=O)CNC(=O)[C@H]2CCCN2C(=O)[C@H](CCC(N)=O)NC(=O)[C@H]([C@@H](C)O)NC(=O)[C@H](C(C)C)NC(=O)[C@H](CCCNC(=N)N)NC1=O", "note": "[compound 120]", "values": [{"measurement": "Ki", "setting": "FP competition, read-out: Ki", "result": 0.59, "unit": "µM"}]}, {"compound": "CC[C@H](C)[C@@H]1NC(=O)[C@H]([C@@H](C)O)NC(=O)[C@H](CCCCN)NC(=O)[C@@H]2CCCN2C(=O)[C@H]([C@@H](C)O)NC(=O)CNC(=O)[C@H](CC(=O)O)NC(=O)CNC(=O)[C@H]([C@@H](C)O)NC(=O)[C@H](Cc2ccccc2)NC(=O)[C@H]([C@@H](C)O)NC(=O)[C@H]([C@@H](C)O)NC(=O)[C@H](CCC(=O)O)NC(=O)[C@H](CC(C)C)NC(=O)[C@H](Cc2c[nH]cn2)NC(=O)[C@H]([C@@H](C)O)NC(=O)[C@H](CCC(N)=O)NC(=O)CNC(=O)[C@H]2CCCN2C(=O)[C@H](CCC(N)=O)NC(=O)[C@H]([C@@H](C)O)NC(=O)[C@H](Cc2ccc(O)cc2)NC(=O)[C@H](CCCNC(=N)N)NC1=O", "note": "[compound 47] (cyclo(THLETTFTGDGTPKTIRYTQ[dP]GQ))", "values": [{"measurement": "Relative Ki (Ki mut/Ki WT)", "result": 0.85}]}, {"compound": "CC[C@H](C)[C@@H]1NC(=O)[C@H]([C@@H](C)O)NC(=O)[C@H](CCCCN)NC(=O)[C@@H]2CCCN2C(=O)[C@H]([C@@H](C)O)NC(=O)CNC(=O)[C@H](CC(=O)O)NC(=O)CNC(=O)[C@H]([C@@H](C)O)NC(=O)[C@H](Cc2ccccc2)NC(=O)[C@H]([C@@H](C)O)NC(=O)[C@H]([C@@H](C)O)NC(=O)[C@H](CCC(=O)O)NC(=O)[C@H](CC(C)C)NC(=O)[C@H](Cc2c[nH]cn2)NC(=O)[C@H]([C@@H](C)O)N(C)C(=O)[C@H](CCC(N)=O)NC(=O)CNC(=O)[C@H]2CCCN2C(=O)[C@H](CCC(N)=O)NC(=O)[C@H]([C@@H](C)O)NC(=O)[C@H](C(C)C)NC(=O)[C@H](CCCNC(=N)N)NC1=O", "note": "[compound 84]", "values": [{"measurement": "Ki", "setting": "FP competition, read-out: Ki", "result": 4.8, "unit": "µM"}]}, {"compound": "CC[C@H](C)[C@@H]1NC(=O)[C@H]([C@@H](C)O)NC(=O)[C@H](CCCCN)NC(=O)[C@@H]2CCCN2C(=O)[C@H]([C@@H](C)O)NC(=O)CNC(=O)[C@H](CC(=O)O)NC(=O)CNC(=O)[C@H]([C@@H](C)O)NC(=O)[C@H](Cc2ccccc2)NC(=O)[C@H]([C@@H](C)O)NC(=O)[C@H]([C@@H](C)O)NC(=O)[C@H](CCC(=O)O)NC(=O)[C@H](CCCCN)NC(=O)[C@H](Cc2c[nH]cn2)NC(=O)[C@H]([C@@H](C)O)NC(=O)[C@H](CCC(N)=O)NC(=O)CNC(=O)[C@H]2CCCN2C(=O)[C@H](CCC(N)=O)NC(=O)[C@H]([C@@H](C)O)NC(=O)[C@H](C(C)C)NC(=O)[C@H](CCCNC(=N)N)NC1=O", "note": "[compound 22] (cyclo(THKETTFTGDGTPKTIRVTQ[dP]GQ))", "values": [{"measurement": "Relative Ki (Ki mut/Ki WT)", "result": 0.80}]}, {"compound": "CC[C@H](C)[C@@H]1NC(=O)[C@H]([C@@H](C)O)NC(=O)[C@H](CCCCN)NC(=O)[C@@H]2CCCN2C(=O)[C@H]([C@@H](C)O)NC(=O)CNC(=O)[C@@H]2CCCN2C(=O)CNC(=O)[C@H]([C@@H](C)O)NC(=O)[C@H](Cc2ccccc2)NC(=O)[C@H]([C@@H](C)O)NC(=O)[C@H]([C@@H](C)O)NC(=O)[C@H](CCC(=O)O)NC(=O)[C@H](CC(C)C)NC(=O)[C@H](Cc2c[nH]cn2)NC(=O)[C@H]([C@@H](C)O)NC(=O)[C@H](CCC(N)=O)NC(=O)CNC(=O)[C@H]2CCCN2C(=O)[C@H](CCC(N)=O)NC(=O)[C@H]([C@@H](C)O)NC(=O)[C@H](C(C)C)NC(=O)[C@H](CCCNC(=N)N)NC1=O", "note": "[compound 29] (cyclo(THLETTFTGPGTPKTIRVTQ[dP]GQ))", "values": [{"measurement": "Relative Ki (Ki mut/Ki WT)", "result": 1.60}]}, {"compound": "CC[C@H](C)[C@@H]1NC(=O)[C@H]([C@@H](C)O)NC(=O)[C@H](CCCCN)NC(=O)[C@@H]2CCCN2C(=O)[C@H]([C@@H](C)O)NC(=O)CNC(=O)[C@H](CC(=O)O)NC(=O)CNC(=O)[C@H]([C@@H](C)O)NC(=O)[C@H](Cc2ccccc2)NC(=O)[C@H]([C@@H](C)O)NC(=O)[C@H]([C@@H](C)O)NC(=O)[C@H](CCC(=O)O)NC(=O)[C@H](CC(C)C)NC(=O)[C@H](Cc2c[nH]cn2)NC(=O)CNC(=O)[C@H](CCC(N)=O)NC(=O)CNC(=O)[C@H]2CCCN2C(=O)[C@H](CCC(N)=O)NC(=O)[C@H]([C@@H](C)O)NC(=O)[C@H](C(C)C)NC(=O)[C@H](CCCNC(=N)N)NC1=O", "note": "[compound 25] (cyclo(GHLETTFTGDGTPKTIRVTQ[dP]GQ))", "values": [{"measurement": "Relative Ki (Ki mut/Ki WT)", "result": 3.00}]}, {"compound": "86 (THXETTFTGDGTPKTIRVTQPGQ; cyclized peptide; (3)..(3) X is N-Me-L; (21)..(21) is D-AA) [compound 86]", "values": [{"measurement": "Ki", "setting": "FP competition", "result": "N.B."}]}, {"compound": "CC[C@H](C)[C@@H]1NC(=O)[C@H]([C@@H](C)O)NC(=O)[C@H](CCCCN)NC(=O)[C@@H]2CCCN2C(=O)[C@H]([C@@H](C)O)NC(=O)CNC(=O)[C@H](CC(=O)O)NC(=O)CNC(=O)[C@H]([C@@H](C)O)NC(=O)[C@H](Cc2ccccc2)NC(=O)[C@H]([C@@H](C)O)NC(=O)[C@H]([C@@H](C)O)NC(=O)[C@H](CCC(=O)O)NC(=O)[C@H](CC(C)C)NC(=O)[C@H](Cc2c[nH]cn2)NC(=O)[C@H]([C@@H](C)O)NC(=O)[C@H](CCC(N)=O)NC(=O)CNC(=O)[C@H]2CCCN2C(=O)[C@H](CCC(N)=O)NC(=O)[C@H]([C@@H](C)O)NC(=O)[C@H](C(C)C)NC(=O)[C@H](CCCNC(=N)N)NC1=O", "note": "[SEQ ID NO: 433]", "values": [{"measurement": "Ki", "setting": "FP competition, read-out: Ki", "result": "1.5 ± 0.2", "unit": "µM"}]}, {"compound": "CC[C@H](C)[C@@H]1NC(=O)[C@H]([C@@H](C)O)NC(=O)[C@H](CCCCN)N(C)C(=O)[C@@H]2CCCN2C(=O)[C@H]([C@@H](C)O)NC(=O)CNC(=O)[C@H](CC(=O)O)NC(=O)CNC(=O)[C@H]([C@@H](C)O)NC(=O)[C@H](Cc2ccccc2)NC(=O)[C@H]([C@@H](C)O)NC(=O)[C@H]([C@@H](C)O)NC(=O)[C@H](CCC(=O)O)NC(=O)[C@H](CC(C)C)NC(=O)[C@H](Cc2c[nH]cn2)NC(=O)[C@H]([C@@H](C)O)NC(=O)[C@H](CCC(N)=O)NC(=O)CNC(=O)[C@H]2CCCN2C(=O)[C@H](CCC(N)=O)NC(=O)[C@H]([C@@H](C)O)NC(=O)[C@H](C(C)C)NC(=O)[C@H](CCCNC(=N)N)NC1=O", "note": "[SEQ ID NO: 96]", "values": [{"measurement": "fold improved binding affinity", "setting": "FP competition, N-methylation", "result": 2, "unit": "fold"}, {"measurement": "Ki", "setting": "FP competition, read-out: Ki", "result": "0.5 ± 0.1", "unit": "µM"}]}]}
